Where two headings read alike, the source gives them in different places.
How the values were obtained:
[1] = target: T1, baculovirus-expressed ALK (Homo sapiens, UniProt Q9UM73); assay: ALK Kinase Assay (ELISA-type, time-resolved fluorescence); type: biochemical
T1 construct: host or cells: baculovirus expression system
In short: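 Wells were coated with phospholipase C-γ at 10 μg/mL in Tris-buffered saline. Adding 30 ng/ml enzyme started the reaction, which ran at 37° C for 15 minutes before Eu-N1 PT66 antibody detection. Percent inhibition versus log10 concentration gave IC50 by variable-slope fit.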

[2] = target: T2, c-Met (cytoplasmic domain) (Homo sapiens, UniProt P08581); assay: c-Met Kinase Assay (same methods as for ALK, with modifications); type: biochemical
T2 construct: 10 ng/mL c-Met (cytoplasmic domain, Invitrogen Corporation #PV3143); purchased Invitrogen Corporation PV3143
In short: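 IC50 values were fitted by variable-slope sigmoidal regression of percent inhibition against log compound concentration. Phosphorylation was read with Eu-N1 PT66 antibody after a 15 min, 37 °C reaction. The reaction was initiated with 10 ng/mL c-Met cytoplasmic domain on wells coated with 10 μg/mL PLC-γ in TBS.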

[3] = 1 μM ATP (Km level), read-out: ALK Activity (ALK Kinase Inhibition, IC50)
[4] = 1 μM ATP (Km level), read-out: cMet Activity (c-Met Kinase Inhibition, IC50)
[5] = 1 μM ATP (Km level), 30 ng/ml ALK, 37° C., 15 minutes, read-out: ALK Activity (ALK kinase inhibition, IC50 class)
[6] = 1 μM ATP (Km level), 10 ng/mL c-Met, read-out: cMet Activity (c-Met kinase inhibition, IC50 class)
[7] = ALK kinase inhibition, 1 μM ATP (Km level), read-out: ALK Activity
[8] = c-Met kinase inhibition, 1 μM ATP (Km level), read-out: cMet Activity

T1 sequence (Q9UM73 19-1620): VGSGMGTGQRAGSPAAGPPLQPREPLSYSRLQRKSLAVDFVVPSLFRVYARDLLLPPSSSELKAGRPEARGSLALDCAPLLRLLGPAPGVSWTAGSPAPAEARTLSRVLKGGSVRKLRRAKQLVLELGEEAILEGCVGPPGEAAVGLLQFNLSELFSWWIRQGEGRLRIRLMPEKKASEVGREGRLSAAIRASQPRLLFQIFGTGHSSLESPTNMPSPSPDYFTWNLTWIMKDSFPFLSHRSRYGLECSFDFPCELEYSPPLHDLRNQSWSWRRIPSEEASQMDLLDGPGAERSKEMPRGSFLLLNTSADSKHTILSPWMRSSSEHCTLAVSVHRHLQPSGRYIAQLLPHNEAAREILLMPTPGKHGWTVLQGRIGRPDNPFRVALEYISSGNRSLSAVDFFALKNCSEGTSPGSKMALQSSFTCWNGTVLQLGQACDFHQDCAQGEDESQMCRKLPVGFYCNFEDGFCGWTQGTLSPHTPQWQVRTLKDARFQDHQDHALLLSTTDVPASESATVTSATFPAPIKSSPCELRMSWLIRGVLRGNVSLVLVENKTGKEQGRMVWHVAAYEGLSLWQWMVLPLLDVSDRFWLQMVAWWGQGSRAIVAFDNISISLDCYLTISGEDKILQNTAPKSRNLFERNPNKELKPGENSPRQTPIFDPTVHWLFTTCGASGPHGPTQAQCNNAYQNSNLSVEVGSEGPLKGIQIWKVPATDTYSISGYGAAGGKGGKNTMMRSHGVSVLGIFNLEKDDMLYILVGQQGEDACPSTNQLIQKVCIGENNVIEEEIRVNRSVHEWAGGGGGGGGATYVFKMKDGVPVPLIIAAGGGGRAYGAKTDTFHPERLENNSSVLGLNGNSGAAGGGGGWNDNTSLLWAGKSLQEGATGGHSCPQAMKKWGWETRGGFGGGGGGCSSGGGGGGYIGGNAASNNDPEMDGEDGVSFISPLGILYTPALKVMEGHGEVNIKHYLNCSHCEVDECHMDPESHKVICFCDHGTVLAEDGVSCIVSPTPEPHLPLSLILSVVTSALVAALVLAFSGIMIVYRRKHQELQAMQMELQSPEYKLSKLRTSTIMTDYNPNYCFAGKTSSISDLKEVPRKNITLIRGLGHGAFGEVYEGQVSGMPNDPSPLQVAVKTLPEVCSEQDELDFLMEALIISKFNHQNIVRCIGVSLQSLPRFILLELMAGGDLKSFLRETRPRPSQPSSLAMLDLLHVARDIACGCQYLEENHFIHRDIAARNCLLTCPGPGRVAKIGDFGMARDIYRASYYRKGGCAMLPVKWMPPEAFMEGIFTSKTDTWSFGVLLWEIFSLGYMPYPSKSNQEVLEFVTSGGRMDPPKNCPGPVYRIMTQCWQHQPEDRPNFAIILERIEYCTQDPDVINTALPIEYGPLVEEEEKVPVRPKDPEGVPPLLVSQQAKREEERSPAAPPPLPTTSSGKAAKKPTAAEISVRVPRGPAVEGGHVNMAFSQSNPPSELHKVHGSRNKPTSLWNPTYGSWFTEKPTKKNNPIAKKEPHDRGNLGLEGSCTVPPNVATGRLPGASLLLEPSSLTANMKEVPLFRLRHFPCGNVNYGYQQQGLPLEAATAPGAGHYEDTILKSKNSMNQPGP
T2 sequence (P08581 956-1390 limits assumed): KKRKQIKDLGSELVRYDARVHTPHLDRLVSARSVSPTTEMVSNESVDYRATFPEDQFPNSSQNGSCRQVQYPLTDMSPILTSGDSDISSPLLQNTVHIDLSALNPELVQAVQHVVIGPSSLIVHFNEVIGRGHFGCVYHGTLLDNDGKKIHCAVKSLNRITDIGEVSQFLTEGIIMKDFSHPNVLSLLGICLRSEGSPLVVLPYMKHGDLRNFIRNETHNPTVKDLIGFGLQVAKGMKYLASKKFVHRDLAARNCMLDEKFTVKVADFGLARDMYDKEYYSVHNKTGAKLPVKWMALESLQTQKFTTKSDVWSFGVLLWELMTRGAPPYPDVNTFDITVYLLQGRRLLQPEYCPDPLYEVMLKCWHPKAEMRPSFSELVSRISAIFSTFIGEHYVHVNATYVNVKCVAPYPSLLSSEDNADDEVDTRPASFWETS

Row | Compound | IC50 [1, 3] [nM] | IC50 [2, 4] [nM] | IC50 [1, 5] [nM] | IC50 [2, 6] [nM] | other results
1 | COCCN1CCc2ccc(Nc3ncc(Cl)c(Nc4ccc(OC)c5c4C(=O)N(C)C5)n3)cc2CC1 [Example 936, 7-{5-Chloro-2-[3-(2-methoxy-ethyl)-2,3,4,5-tetrahydro-1H-3-benzazepin-7-ylamino]-pyrimidin-4-ylamino}-4-methoxy-2-methyl-2,3-dihydro-isoindol-1-one] | < 100 | 100 to 1000 |  |  | 
2 | O=C1CCCc2cc(Nc3ncc(Cl)c(Nc4ccccc4-c4cnco4)n3)ccc2N1 [Example 997, 7-[5-Chloro-4-(2-oxazol-5-ylphenylamino)-pyrimidin-2-ylamino]-1,3,4,5-tetrahydro-benzo[b]azepin-2-one] | 100 to 1000 | 100 to 1000 |  |  | 
3 | Cc1nnc(-c2ccccc2Nc2nc(Nc3ccc4c(c3)CCOC(=O)N4C)ncc2Cl)o1 [Example 1786, 2-{5-Chloro-4-[2-(5-methyl-[1,3,4]oxadiazol-2-yl)-phenylamino]-pyrimidin-2-ylamino}-5-methyl-8,9-dihydro-5H-7-oxa-5-aza-benzocyclohepten-6-one] |  |  |  |  | IC50 ([1]; ALK kinase inhibition, 1 μM ATP, read-out: ALK Activity): 100 to 1000 nM; IC50 ([2]; c-Met kinase inhibition, 1 μM ATP, read-out: cMet Activity): < 100 nM
4 | C#CCNC(=O)c1cccc(F)c1Nc1nc(Nc2ccc3c(c2)NC(=O)C(NC(=O)COC)CC3(C)C)ncc1Cl (centres unmarked) [Example 1293, 2-{5-Chloro-2-[3-(2-methoxy-acetylamino)-5,5-dimethyl-2-oxo-2,3,4,5-tetrahydro-1H-1-benzazepin-8-ylamino]-pyrimidin-4-ylamino}-3-fluoro-N-prop-2-ynyl-benzamide] |  |  | < 100 | < 100 | 
5 | CC1(C)CCC(=O)Nc2cc(Nc3ncc(Cl)c(Nc4ccccc4OCCC#N)n3)ccc21 [Example 1238, 3-{2-[5-Chloro-2-(5,5-dimethyl-2-oxo-2,3,4,5-tetrahydro-1H-1-benzazepin-8-ylamino)-pyrimidin-4-ylamino]-phenoxy}-propionitrile] |  |  | < 100 | < 100 | 
6 | C#CCNC(=O)c1cccc(F)c1Nc1nc(Nc2ccc3c(c2)OCCCN3C(=O)OCCCN(C)C)ncc1Cl [Example 1427, 3-[5-Chloro-4-(2-fluoro-6-prop-2-ynylcarbamoyl-phenylamino)-pyrimidin-2-ylamino]-7,8-dihydro-6H-5-oxa-9-aza-benzocycloheptene-9-carboxylic acid 3-dimethylamino-propyl ester] |  |  | 100 to 1000 | 100 to 1000 | 
7 | CCN1C(=O)CCCc2c1ccc(Nc1ncc(Cl)c(NC3C4CCC(C4)C3C(N)=O)n1)c2OC (stereo not drawn) [Example 129, (2-exo, 3-exo)-3-[5-Chloro-2-(1-ethyl-6-methoxy-2-oxo-2,3,4,5-tetrahydro-1H-benzo[b]azepin-7-ylamino)-pyrimidin-4-ylamino]-bicyclo[2.2.1]heptane-2-carboxylic acid amide] |  |  |  |  | IC50 [1, 7]: < 100 nM; IC50 [2, 8]: > 10000 nM
8 | COCCNC1CCCc2c(ccc(Nc3ncc(Cl)c(Nc4ccccc4S(=O)(=O)N(C)C)n3)c2OC)C1 (centres unmarked) [Example 957, 2-{5-Chloro-2-[1-methoxy-6-(2-methoxy-ethylamino)-6,7,8,9-tetrahydro-5H-benzocyclohepten-2-ylamino]-pyrimidin-4-ylamino}-N,N-dimethyl-benzenesulfonamide] | < 100 | > 10000 |  |  | 
9 | COc1cc(N2CCOCC2)ccc1Nc1nc(Nc2ccc3c(c2)CCCC(=O)N3C(C)C)ncc1Cl [Example 666, 7-[5-Chloro-4-(2-methoxy-4-morpholin-4-yl-phenylamino)-pyrimidin-2-ylamino]-1-isopropyl-1,3,4,5-tetrahydro-benzo[b]azepin-2-one] | 100 to 1000 | 1000 to 10000 |  |  | 
10 | CNC(=O)c1cccc(F)c1Nc1nc(Nc2ccc3c(c2)C2CCC(C3)N2CCOC)ncc1Cl (centres unmarked) [Example 456, 2-{5-Chloro-2-[12-(2-methoxy-ethyl)-12-aza-tricyclo[7.2.1.0(2,7)]dodeca-2(7),3,5-trien-4-ylamino]-pyrimidin-4-ylamino}-3-fluoro-N-methyl-benzamide] |  |  |  |  | IC50 [1, 7]: < 100 nM; IC50 [2, 8]: < 100 nM
